Test results from publication PMC12164272, “Ruthenium(II) Polypyridyl Complexes Containing COUBPY Ligands as Potent Photosensitizers for the Efficient Phototherapy of Hypoxic Tumors” (Journal of the American Chemical Society, 2025).
Like-named read-outs stand apart in the source and are kept apart here.

Columns and labels:
CT-26 cancer cells = experiment: (Photo)cytotoxicity in 2D monolayer cells under normoxia (21% O2), resazurin assay; format: cell-based, murine; conditions: for Phototherapeutic index (PI) = IC50(dark)/IC50(light): normoxia; for IC50: Mus musculus
Protocol: To that end, cells were incubated for 4 h with increasing concentrations of the compounds, and after refreshing the medium, they were either illuminated or kept in the dark. […] The phototoxic index (PI), defined as the ratio of dark to light IC50 values, was used to quantify the phototherapeutic efficiency of the tested compounds. […] Using a well-by-well monochromatic LED device, cells were irradiated with green (540 nm, 40 min), yellow (595 nm, 1 h), red (620 nm, 1 h), deep-red (645 nm, 1 h), far-red (670 nm, 1 h), or NIR (740 nm, 1 h) light, with fluences ranging from 3.4 J/cm^2 (595 nm) to 13.5 J/cm^2 (670 nm).
In vitro (photo)cytotoxicity determination of Ru-COUBPY PSs
CT-26 cells were cultured in Dulbecco’s modified Eagle medium (DMEM) (Gibco)
supplemented with 10% fetal calf serum (Gibco) and 2 mM L-glutamine.
the corresponding culture medium was supplemented with 100 U·mL−1 penicillin streptomycin
mixture (Gibco) and cells were maintained in a humidified atmosphere at 37 °C and 5 % of
(Photo)cytotoxicity evaluation in 2D monolayer cells under normoxia (21% O2)
The (photo)cytotoxicity of the test compounds under normoxia (21% O2) was assessed by a
fluorometric cell viability assay using Resazurin (Acros Organics). CT-26 cells were seeded in
triplicate in 96-well plates at a density of 4000 cells/well in complete medium in a final volume
of 100 μL/well. After 24 h, cells were treated with increasing concentrations of the test
compounds using serial dilutions of the test compounds in complete culture medium (DMSO
≤1 %) at final concentrations in the range of 0 to 250 μM (100 μL/well), followed by a 4-h
incubation at 37 °C, 5% CO2 in the dark. The medium containing the PS was then replaced with
fresh medium (100 μL/well) and plates were irradiated for 1 h at 37 °C, 0 % CO2 with 540 nm
(spectral half-width: 32 nm, 40 min, 3.75 mW cm−2, 9.0 J cm−2), 595 nm (spectral half-width:
mW cm−2, 6.7 J cm−2), 645 nm (spectral half-width: 32 nm, 60 min, 2.50 mW cm−2, 9.0 J cm−2),
670 nm (spectral half-width: 32 nm, 60 min, 3.75 mW cm−2, 13.5 J cm−2) or 740 nm (spectral
half-width: 32 nm, 60 min, 3.50 mW cm−2, 12.6 J cm−2) light using a LED multi-well plate
photo-irradiation system (Atlas Photonics Lumos Bio). To evaluate the cytotoxicity of the test
compounds in the dark, three additional plates of treated cells were kept in the dark for 1 h at
37 °C, 0 % CO2. Cells were then kept in the incubator (37 °C, 5 % CO2) over a recovery period
of 44 h. Next, the medium was replaced with complete medium containing Resazurin (0.2
mg/mL, 100 μL/well), followed by a 4-h incubation at 37 °C, 5 % CO2. Finally, the fluorescence
signal of the Resorufin product was measured (ex = 540 nm, em = 590 nm) using a Infinite
200 PRO Microplate Reader from TECAN. IC50 values were then calculated based on the
inhibitory rate curves using the following equation (6)
where I represent the percentage inhibition of viability observed, Imax is the maximal inhibitory
effect, IC50 is the concentration that inhibits 50% of maximal growth, C is the concentration of
the treatment and n is the slope of the semi-logarithmic dose-response sigmoidal curves. The
non-linear fitting was performed using GraphPad Prism software. All experiments were
performed in three independent studies with triplicate points per concentration level.

[1] = cited from earlier work

Structure (SMILES): C=CC1=C(C)c2cc3[nH]c(cc4nc(cc5[nH]c(cc1n2)c(C)c5CCC(=O)O)C(CCC(=O)O)=C4C)c(C)c3C=C [PpIX, Protoporphyrin IX]
- Phototherapeutic index (PI) = IC50(dark)/IC50(light) (CT-26 cancer cells; 540 nm): >312
- Phototherapeutic index (PI) = IC50(dark)/IC50(light) (CT-26 cancer cells; 595 nm): >250
- Phototherapeutic index (PI) = IC50(dark)/IC50(light) (CT-26 cancer cells; 620 nm): >151
- Phototherapeutic index (PI) = IC50(dark)/IC50(light) (CT-26 cancer cells; 645 nm): >588
- Phototherapeutic index (PI) = IC50(dark)/IC50(light) (CT-26 cancer cells; 670 nm): >129
- Phototherapeutic index (PI) = IC50(dark)/IC50(light) (CT-26 cancer cells; 740 nm): >50
- IC50 (CT-26 cancer cells; CT26, 540 nm, 9.0 J cm–2, normoxia 21% O2): 320 ± 90 nM
- IC50 (CT-26 cancer cells; CT26, 595 nm, 3.4 J cm–2, normoxia 21% O2): 400 ± 10 nM
- IC50 (CT-26 cancer cells; CT26, 620 nm, 6.7 J cm–2, normoxia 21% O2): 660 ± 210 nM
- IC50 (CT-26 cancer cells; CT26, 645 nm, 9.0 J cm–2, normoxia 21% O2): 170 ± 210 nM
- IC50 (CT-26 cancer cells; CT26, 670 nm, 13.5 J cm–2, normoxia 21% O2): 770 ± 200 nM
- IC50 (CT-26 cancer cells; CT26, 740 nm, 12.6 J cm–2, normoxia 21% O2): 2100 ± 200 nM
- IC50 (CT-26 cancer cells; CT26, 4 h, dark, normoxia 21% O2, 4 h incubation): > 100000 nM

Structure (SMILES): [Cl][Ru][Cl].c1ccc(-c2ccccn2)nc1.c1ccc(-c2ccccn2)nc1.c1ccc(-c2ccccn2)nc1 [[Ru(bpy)3]Cl2]
- reference singlet oxygen quantum yield ΦΔ,ref ([1]; aerated CH3CN): 0.57

Structure (SMILES): CN(C)c1ccc2nc3ccc(=[N+](C)C)cc-3sc2c1 [methylene blue]
- reference singlet oxygen quantum yield ΦΔ,ref ([1]; aerated DCM): 0.57
